Values quoted from earlier work as cited in patent publication US20160184332A1, “MEDICAMENT COMPRISING A PHARMACEUTICAL COMBINATION OF DRUGS” (priority 2013, published 2016).

Columns and labels:
[1] = system: cytochrome P450 (CYP) isozymes; conditions: in vitro
[2] = biological target: CYP3A4 (Homo sapiens, UniProt P08684); conditions: minor route; primary route of metabolism is glucuronidation
[3] = system: human CYP 450 isoenzymes: 1A2, 2A6, 2B6, 2C9, 2C19, 2D6 and 3A4
[4] = system: uridine-5-5′-diphosphoglucuronyl transferase; conditions: enzyme responsible for glucuronidation

Sequence of CYP3A4 (P08684 whole entry): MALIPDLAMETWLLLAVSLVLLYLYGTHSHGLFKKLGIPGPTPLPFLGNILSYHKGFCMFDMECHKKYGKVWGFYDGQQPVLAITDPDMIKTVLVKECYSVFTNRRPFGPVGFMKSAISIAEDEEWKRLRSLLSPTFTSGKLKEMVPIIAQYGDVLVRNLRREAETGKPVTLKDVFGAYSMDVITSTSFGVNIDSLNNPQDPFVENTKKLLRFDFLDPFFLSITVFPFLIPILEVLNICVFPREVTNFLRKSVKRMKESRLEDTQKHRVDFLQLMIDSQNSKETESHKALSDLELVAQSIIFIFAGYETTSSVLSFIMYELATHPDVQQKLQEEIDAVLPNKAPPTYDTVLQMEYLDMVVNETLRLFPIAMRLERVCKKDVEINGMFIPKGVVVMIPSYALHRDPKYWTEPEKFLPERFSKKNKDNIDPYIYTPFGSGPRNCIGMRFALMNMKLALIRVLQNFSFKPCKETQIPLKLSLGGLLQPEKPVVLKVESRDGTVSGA

| Compound | induction or inhibition of cytochrome P450 (CYP) isozymes [1] | extent to which it is a substrate of CYP3A4 [2] | inhibition of in vitro drug metabolism mediated by human CYP 450 isoenzymes [3] | inhibition of uridine-5-5′-diphosphoglucuronyl transferase [4] |
| --- | --- | --- | --- | --- |
| C[C@@H]1CCO[C@H]2Cn3cc(C(=O)NCc4ccc(F)cc4F)c(=O)c(O)c3C(=O)N12 [dolutegravir, (4R,12aS)—N-(2,4-difluorobenzyl)-7-hydroxy-4-methyl-6,8-dioxo-3,4,6,8,12,12a-hexa-hydro-2H-pyrido[1′,2′:4,5]pyrazino[2,1-b][1,3]oxazine-9-carboxamide] | demonstrates induction or inhibition | about 15% | – | – |
| Nc1nc(=O)n([C@@H]2CS[C@H](CO)O2)cc1F [emtricitabine, 5-fluoro-1-(2R,5S)-[2-(hydroxymethyl)-1,3 oxathiolan-5-yl]cytosine] | – | – | does not inhibit | does not inhibit |
